Results: PubChem BioAssay (NCI)
Values joined by “and” are separate entries in the source; they are usually repeats but may differ in a detail not shown here. Identical values can stand only once.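 Assay format: 96-well plates, 48-hour exposure. The concentration for 50% growth inhibition is given as GI50. TGI denotes the concentration required for complete inhibition of growth.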

Assays:
Test in all cases: NCI anticancer screen, dose series, 48 h
RXF 393 renal = system: RXF 393 renal
UO-31 renal = system: UO-31 renal
DU-145 prostate = system: DU-145 prostate
CAKI-1 renal = system: CAKI-1 renal
UACC-257 melanoma = system: UACC-257 melanoma
HCT-15 colon = system: HCT-15 colon
SF-539 CNS = system: SF-539 CNS
MDA-MB-435 = system: MDA-MB-435
MOLT-4 leukemia = system: MOLT-4 leukemia
SK-MEL-28 melanoma = system: SK-MEL-28 melanoma
T-47D breast = system: T-47D breast
MDA-MB-231 breast = system: MDA-MB-231 breast
HCC-2998 colon = system: HCC-2998 colon
NCI-H226 lung = system: NCI-H226 lung
OVCAR-8 ovarian = system: OVCAR-8 ovarian
NCI/ADR-RES ovarian = system: NCI/ADR-RES ovarian
SF-295 CNS = system: SF-295 CNS
PC-3 prostate = system: PC-3 prostate
HOP-62 NSCLC = system: HOP-62 NSCLC
HT29 colon = system: HT29 colon
SNB-75 CNS = system: SNB-75 CNS
RPMI-8226 leukemia = system: RPMI-8226 leukemia
NCI-H460 lung = system: NCI-H460 lung
SF-268 CNS = system: SF-268 CNS
OVCAR-5 ovarian = system: OVCAR-5 ovarian
IGROV1 ovarian = system: IGROV1 ovarian
A498 renal = system: A498 renal
NCI-H23 lung = system: NCI-H23 lung
EKVX NSCLC = system: EKVX NSCLC
HOP-92 NSCLC = system: HOP-92 NSCLC
SN12C renal = system: SN12C renal
TK-10 renal = system: TK-10 renal
HS 578T breast = system: HS 578T breast
SNB-19 CNS = system: SNB-19 CNS
BT-549 breast = system: BT-549 breast
LOX IMVI melanoma = system: LOX IMVI melanoma
SK-OV-3 ovarian = system: SK-OV-3 ovarian
SW-620 colon = system: SW-620 colon
M14 melanoma = system: M14 melanoma
ACHN renal = system: ACHN renal
786-0 renal = system: 786-0 renal
NCI-H522 lung = system: NCI-H522 lung
OVCAR-4 ovarian = system: OVCAR-4 ovarian
U251 CNS = system: U251 CNS
HCT-116 colon = system: HCT-116 colon
UACC-62 melanoma = system: UACC-62 melanoma
OVCAR-3 ovarian = system: OVCAR-3 ovarian
SK-MEL-5 melanoma = system: SK-MEL-5 melanoma
K-562 leukemia = system: K-562 leukemia
A549 NSCLC = system: A549 NSCLC
CCRF-CEM leukemia = system: CCRF-CEM leukemia
SK-MEL-2 melanoma = system: SK-MEL-2 melanoma
COLO 205 colon = system: COLO 205 colon
KM12 colon = system: KM12 colon
MCF7 breast = system: MCF7 breast

CCCCCCCCNCCC[C@@H](C)[C@H]1CC[C@H]2[C@@H]3[C@H](OCCCN)C[C@H]4C[C@H](OCCCN)CC[C@]4(C)[C@H]3C[C@H](OCCCN)[C@]12C
GI50 (RXF 393 renal): 2220 nM
TGI (RXF 393 renal): 16400 nM
GI50 (UO-31 renal): 1490 nM
TGI (UO-31 renal): 3720 nM
GI50 (DU-145 prostate): 1140 nM
TGI (DU-145 prostate): 2350 nM
GI50 (CAKI-1 renal): 3090 nM
TGI (CAKI-1 renal): 15400 nM
GI50 (UACC-257 melanoma): 2890 nM
TGI (UACC-257 melanoma): 8640 nM
GI50 (HCT-15 colon): 3390 nM
TGI (HCT-15 colon): 16900 nM
GI50 (SF-539 CNS): 810 nM
TGI (SF-539 CNS): 2600 nM
GI50 (MDA-MB-435): 768 nM
TGI (MDA-MB-435): 2500 nM
GI50 (MOLT-4 leukemia): 3120 nM
TGI (MOLT-4 leukemia): 9690 nM
GI50 (SK-MEL-28 melanoma): 776 nM
TGI (SK-MEL-28 melanoma): 2780 nM
GI50 (T-47D breast): 3920 nM
TGI (T-47D breast): > 26700 nM
GI50 (MDA-MB-231 breast): 983 nM
TGI (MDA-MB-231 breast): 7110 nM
GI50 (HCC-2998 colon): 2040 nM
TGI (HCC-2998 colon): 7000 nM
GI50 (NCI-H226 lung): 5210 nM
TGI (NCI-H226 lung): 23600 nM
GI50 (OVCAR-8 ovarian): 1820 nM
TGI (OVCAR-8 ovarian): 4070 nM
GI50 (NCI/ADR-RES ovarian): 1930 nM
TGI (NCI/ADR-RES ovarian): 5270 nM
GI50 (SF-295 CNS): 993 nM
TGI (SF-295 CNS): 4430 nM
GI50 (PC-3 prostate): 5580 nM
TGI (PC-3 prostate): > 49300 nM
GI50 (HOP-62 NSCLC): 1530 nM
TGI (HOP-62 NSCLC): 7160 nM
GI50 (HT29 colon): 1710 nM
TGI (HT29 colon): 7590 nM
GI50 (SNB-75 CNS): 2520 nM
TGI (SNB-75 CNS): 11600 nM
GI50 (RPMI-8226 leukemia): 1270 nM
TGI (RPMI-8226 leukemia): 3490 nM
TGI (NCI-H460 lung): > 19800 nM
GI50 (SF-268 CNS): 1500 nM
TGI (SF-268 CNS): 3700 nM
GI50 (OVCAR-5 ovarian): 2260 nM
TGI (OVCAR-5 ovarian): 12500 nM
GI50 (IGROV1 ovarian): 1490 nM
TGI (IGROV1 ovarian): 3250 nM
GI50 (A498 renal): 21300 nM
TGI (A498 renal): 54500 nM
GI50 (NCI-H23 lung): 1810 nM
TGI (NCI-H23 lung): 5400 nM
GI50 (EKVX NSCLC): 2010 nM
TGI (EKVX NSCLC): 6650 nM
GI50 (HOP-92 NSCLC): 429 nM
TGI (HOP-92 NSCLC): 8460 nM
GI50 (SN12C renal): 1210 nM
TGI (SN12C renal): 5680 nM
GI50 (TK-10 renal): 1790 nM
TGI (TK-10 renal): 7360 nM
GI50 (HS 578T breast): 2430 nM
TGI (HS 578T breast): 5590 nM
GI50 (SNB-19 CNS): 1690 nM
TGI (SNB-19 CNS): 5240 nM
GI50 (BT-549 breast): 1430 nM
TGI (BT-549 breast): 4350 nM
GI50 (LOX IMVI melanoma): 1570 nM
TGI (LOX IMVI melanoma): 3540 nM
GI50 (SK-OV-3 ovarian): 4720 nM
TGI (SK-OV-3 ovarian): 21900 nM
GI50 (SW-620 colon): 1720 nM
TGI (SW-620 colon): 3850 nM
GI50 (M14 melanoma): 1640 nM
TGI (M14 melanoma): 4870 nM
GI50 (ACHN renal): 2020 nM
TGI (ACHN renal): 6410 nM
GI50 (786-0 renal): 1210 nM
TGI (786-0 renal): 3300 nM
GI50 (NCI-H522 lung): 2480 nM
TGI (NCI-H522 lung): 7160 nM
GI50 (OVCAR-4 ovarian): 8270 nM
TGI (OVCAR-4 ovarian): 29400 nM
GI50 (U251 CNS): 2230 nM
TGI (U251 CNS): 6320 nM
GI50 (HCT-116 colon): 870 nM
TGI (HCT-116 colon): 2610 nM
GI50 (UACC-62 melanoma): 1000 nM
TGI (UACC-62 melanoma): 3840 nM
GI50 (OVCAR-3 ovarian): 5000 nM
TGI (OVCAR-3 ovarian): 21500 nM
GI50 (SK-MEL-5 melanoma): 2240 nM
TGI (SK-MEL-5 melanoma): 6540 nM
GI50 (K-562 leukemia): 2840 nM
TGI (K-562 leukemia): 11500 nM
GI50 (A549 NSCLC): 2430 nM
TGI (A549 NSCLC): 8810 nM
GI50 (CCRF-CEM leukemia): 1890 nM
TGI (CCRF-CEM leukemia): 4270 nM
GI50 (SK-MEL-2 melanoma): 3750 nM
TGI (SK-MEL-2 melanoma): > 31300 nM
GI50 (COLO 205 colon): 2600 nM
TGI (COLO 205 colon): 7770 nM

COc1cc2cc(C(=O)N3CC(COS(C)(=O)=O)c4ccc(O)cc43)[nH]c2c(OC)c1OC (stereo unspecified)
TGI (RXF 393 renal): < 0.1 nM
TGI (KM12 colon): 3.3 nM
TGI (UO-31 renal): < 0.1 nM
TGI (DU-145 prostate): 0.845 nM
GI50 (CAKI-1 renal): < 0.1 nM
TGI (CAKI-1 renal): < 0.1 nM
TGI (UACC-257 melanoma): 4.04 nM
TGI (HCT-15 colon): 0.858 nM
TGI (SF-539 CNS): < 0.1 nM
TGI (MDA-MB-435): 0.212 nM
TGI (MOLT-4 leukemia): 92.4 nM
TGI (T-47D breast): 41.6 nM
TGI (MDA-MB-231 breast): 0.328 nM
TGI (HCC-2998 colon): < 0.1 nM
TGI (NCI-H226 lung): 0.531 nM
TGI (OVCAR-8 ovarian): 149 nM
TGI (NCI/ADR-RES ovarian): 524 nM
TGI (SF-295 CNS): < 0.1 nM
TGI (HOP-62 NSCLC): 1.98 nM
TGI (SNB-75 CNS): 1.49 nM
TGI (OVCAR-5 ovarian): 42.8 nM
TGI (IGROV1 ovarian): 37.8 nM
TGI (NCI-H23 lung): 2.86 nM
TGI (EKVX NSCLC): 6.45 nM
TGI (HOP-92 NSCLC): 638 nM
TGI (SN12C renal): 16.5 nM
TGI (TK-10 renal): 14000 nM
TGI (HS 578T breast): 0.872 nM
TGI (SNB-19 CNS): 12 nM
TGI (SW-620 colon): 111 nM and 11.8 nM
TGI (ACHN renal): < 0.1 nM
TGI (786-0 renal): 10.6 nM
TGI (NCI-H522 lung): < 0.1 nM
TGI (U251 CNS): 137 nM
TGI (HCT-116 colon): 138 nM
TGI (OVCAR-3 ovarian): 0.616 nM
TGI (SK-MEL-5 melanoma): < 0.1 nM
TGI (MCF7 breast): 40.2 nM
TGI (CCRF-CEM leukemia): > 100000 nM
TGI (SK-MEL-2 melanoma): < 0.1 nM
TGI (COLO 205 colon): 1.94 nM
